# Laboratory results: ChEMBL document CHEMBL2069178, “A combined targeted/phenotypic approach for the identification of new antiangiogenics agents active on a zebrafish model: from in silico screening to cyclodextrin formulation” (Bioorg Med Chem Lett, 2012)
# pIC50, pKi: −log10 of the molar value. Active and inactive are the calls of the source. The rule behind the calls is not given here.
# Key:
# [1] = tested on: HUVEC; experiment: Antiangiogenic activity in HUVEC co-cultured with vascular smooth muscle cells assessed as inhibition of network formation at […] after 72 hrs; type: functional, cell-based; settings: Homo sapiens
# [2] = tested on: HUVEC; experiment: Antiangiogenic activity in HUVEC co-cultured with vascular smooth muscle cells assessed as inhibition of network formation at 1.8 to 15 uM after 72 hrs; type: functional, cell-based; settings: Homo sapiens
# [3] = tested on: HUVEC; experiment: Antiangiogenic activity in HUVEC co-cultured with vascular smooth muscle cells assessed as inhibition of cell growth at […] after 72 hrs; type: functional, cell-based; settings: Homo sapiens
# [4] = tested on: Liver microsomes; experiment: Metabolic stability of the compound in human liver microsomes assessed as compound remaining; type: ADME, Microsome
# [5] = tested on: HUVEC; experiment: Antiangiogenic activity in HUVEC co-cultured with vascular smooth muscle cells assessed as inhibition of network formation at 1.8 to 16 uM after 72 hrs; type: functional, cell-based; settings: Homo sapiens
# [6] = species on record: Danio rerio; experiment: Toxicity in embryos of zebrafish assessed as induction of growth malformation at 0.5 to 2 uM treated 16 hrs post fertilization measured after 24 hrs; type: organism-based; settings: in vivo
# [7] = Apparent permeability of the compound assessed as membrane permeation by PAMPA; type: ADME
# [8] = Permeability of the compound assessed as membrane retention by PAMPA; type: ADME
# [9] = tested on: HUVEC; experiment: Cytotoxicity against HUVEC co-cultured with vascular smooth muscle cells assessed as rounded-up, unconnected and unicellular morphology phenotype; type: cell-based; settings: human
# [10] = biological target: Tyrosine-protein kinase ABL1 (Homo sapiens, UniProt P00519); experiment: Inhibition of Abl
# Chain of Tyrosine-protein kinase ABL1 (P00519 whole entry): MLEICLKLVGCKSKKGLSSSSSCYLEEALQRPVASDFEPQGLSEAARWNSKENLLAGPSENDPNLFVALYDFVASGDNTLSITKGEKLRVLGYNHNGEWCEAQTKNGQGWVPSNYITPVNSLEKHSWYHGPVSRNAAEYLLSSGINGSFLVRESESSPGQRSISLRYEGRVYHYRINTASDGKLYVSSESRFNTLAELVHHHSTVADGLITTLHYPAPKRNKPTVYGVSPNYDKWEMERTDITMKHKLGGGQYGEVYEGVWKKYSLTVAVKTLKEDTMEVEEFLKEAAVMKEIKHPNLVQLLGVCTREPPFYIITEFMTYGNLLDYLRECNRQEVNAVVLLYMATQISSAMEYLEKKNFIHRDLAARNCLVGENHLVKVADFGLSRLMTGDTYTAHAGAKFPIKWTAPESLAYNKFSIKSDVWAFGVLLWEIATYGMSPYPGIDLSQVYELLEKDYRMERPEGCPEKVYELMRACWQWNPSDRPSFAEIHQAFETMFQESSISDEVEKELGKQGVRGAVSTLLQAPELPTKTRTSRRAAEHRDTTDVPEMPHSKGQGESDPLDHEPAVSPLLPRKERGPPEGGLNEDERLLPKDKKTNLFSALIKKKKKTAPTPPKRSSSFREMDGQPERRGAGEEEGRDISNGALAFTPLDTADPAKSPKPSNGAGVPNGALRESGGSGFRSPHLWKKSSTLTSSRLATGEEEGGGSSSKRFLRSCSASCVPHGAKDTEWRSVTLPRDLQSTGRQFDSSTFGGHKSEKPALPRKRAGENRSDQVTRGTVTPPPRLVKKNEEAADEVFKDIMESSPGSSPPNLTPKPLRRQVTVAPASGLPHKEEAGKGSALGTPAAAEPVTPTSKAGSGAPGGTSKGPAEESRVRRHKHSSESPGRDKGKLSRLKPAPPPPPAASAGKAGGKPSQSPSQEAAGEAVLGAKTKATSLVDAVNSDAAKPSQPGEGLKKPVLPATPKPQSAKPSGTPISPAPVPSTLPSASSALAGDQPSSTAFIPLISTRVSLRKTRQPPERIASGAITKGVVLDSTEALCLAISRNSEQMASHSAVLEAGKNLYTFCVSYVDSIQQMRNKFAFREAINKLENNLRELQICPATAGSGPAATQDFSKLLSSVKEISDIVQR
# [11] = biological target: Proto-oncogene tyrosine-protein kinase Src (Homo sapiens) (UniProt P12931); experiment: Inhibition of c-Src at 100 uM
# Chain of Proto-oncogene tyrosine-protein kinase Src (Homo sapiens) (P12931 2-536 limits assumed): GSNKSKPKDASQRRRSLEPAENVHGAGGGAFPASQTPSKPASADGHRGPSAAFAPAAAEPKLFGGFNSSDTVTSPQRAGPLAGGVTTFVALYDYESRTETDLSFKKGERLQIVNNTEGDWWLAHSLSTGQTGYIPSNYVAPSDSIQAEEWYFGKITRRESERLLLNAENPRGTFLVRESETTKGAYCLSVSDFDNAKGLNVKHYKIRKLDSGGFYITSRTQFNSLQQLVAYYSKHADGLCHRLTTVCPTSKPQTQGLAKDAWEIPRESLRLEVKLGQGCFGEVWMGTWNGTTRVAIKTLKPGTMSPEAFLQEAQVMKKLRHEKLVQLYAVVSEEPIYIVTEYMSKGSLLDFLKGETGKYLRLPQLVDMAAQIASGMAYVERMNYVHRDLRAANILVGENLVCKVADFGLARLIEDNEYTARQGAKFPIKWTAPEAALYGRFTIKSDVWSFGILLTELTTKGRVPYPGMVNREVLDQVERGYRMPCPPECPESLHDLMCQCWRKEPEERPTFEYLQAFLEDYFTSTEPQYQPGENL
# [12] = tested on: HUVEC; experiment: Antiangiogenic activity in HUVEC co-cultured with vascular smooth muscle cells assessed as inhibition of network formation at 1.8 after 72 hrs; type: functional, cell-based; settings: Homo sapiens
# [13] = tested on: HUVEC; experiment: Antiangiogenic activity in HUVEC co-cultured with vascular smooth muscle cells assessed as inhibition of network formation at 10 to 15 uM after 72 hrs; type: functional, cell-based; settings: Homo sapiens
# [14] = tested on: HUVEC; experiment: Cytotoxicity against HUVEC co-cultured with vascular smooth muscle cells assessed as cell death at 16 uM; type: cell-based; settings: human
# [15] = species on record: Homo sapiens; experiment: Inhibition of FGFR3 […] mutant at 10 uM
# [16] = biological target: Tyrosine-protein kinase JAK2 (Homo sapiens) (UniProt O60674); experiment: Inhibition of Jak2 at 10 uM
# [17] = species on record: Homo sapiens; experiment: Inhibition of PKB at 10 uM
# [18] = biological target: Proto-oncogene tyrosine-protein kinase receptor Ret (Homo sapiens) (UniProt P07949); experiment: Inhibition of Ret at 10 uM
# Chain of Proto-oncogene tyrosine-protein kinase receptor Ret (Homo sapiens) (P07949 whole entry): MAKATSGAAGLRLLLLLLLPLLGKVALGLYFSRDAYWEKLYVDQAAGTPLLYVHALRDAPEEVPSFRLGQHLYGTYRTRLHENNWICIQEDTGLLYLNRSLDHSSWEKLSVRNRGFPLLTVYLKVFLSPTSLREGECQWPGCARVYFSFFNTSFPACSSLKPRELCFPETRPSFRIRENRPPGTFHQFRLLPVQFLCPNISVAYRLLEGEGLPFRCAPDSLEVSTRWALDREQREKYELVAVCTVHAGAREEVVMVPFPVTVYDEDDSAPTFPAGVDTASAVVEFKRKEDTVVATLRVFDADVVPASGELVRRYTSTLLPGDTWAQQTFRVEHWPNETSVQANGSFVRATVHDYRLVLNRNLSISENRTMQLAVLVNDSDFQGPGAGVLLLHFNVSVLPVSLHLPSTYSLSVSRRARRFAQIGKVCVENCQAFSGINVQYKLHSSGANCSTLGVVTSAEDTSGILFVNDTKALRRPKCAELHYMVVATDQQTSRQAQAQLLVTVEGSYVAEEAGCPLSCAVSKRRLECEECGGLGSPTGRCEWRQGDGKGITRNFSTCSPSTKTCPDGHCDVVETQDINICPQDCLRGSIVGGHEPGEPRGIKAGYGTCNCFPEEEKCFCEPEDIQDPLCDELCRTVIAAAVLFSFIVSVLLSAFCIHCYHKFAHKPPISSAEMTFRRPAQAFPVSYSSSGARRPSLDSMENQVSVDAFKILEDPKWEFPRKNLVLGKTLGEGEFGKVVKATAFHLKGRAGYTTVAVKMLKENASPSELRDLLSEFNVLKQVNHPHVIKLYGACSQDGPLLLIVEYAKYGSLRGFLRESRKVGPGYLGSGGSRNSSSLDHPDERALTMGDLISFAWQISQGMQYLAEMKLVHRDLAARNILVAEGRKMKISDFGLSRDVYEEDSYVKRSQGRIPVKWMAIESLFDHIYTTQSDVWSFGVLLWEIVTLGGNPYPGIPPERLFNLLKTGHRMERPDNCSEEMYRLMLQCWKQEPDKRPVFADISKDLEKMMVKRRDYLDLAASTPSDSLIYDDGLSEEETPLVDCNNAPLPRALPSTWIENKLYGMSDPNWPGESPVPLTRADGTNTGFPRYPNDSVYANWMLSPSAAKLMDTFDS
# [19] = biological target: Cyclin-dependent kinase 2 (Homo sapiens) (UniProt P24941); experiment: Inhibition of CDK2A at 10 uM
# [20] = biological target: Hepatocyte growth factor receptor (Homo sapiens) (UniProt P08581); experiment: Inhibition of Met at 10 uM
# [21] = biological target: T1, Vascular endothelial growth factor receptor 2 (Homo sapiens, UniProt P35968); experiment: Inhibition of VEGFR-2 at 10 uM
# T1 sequence (P35968 whole entry): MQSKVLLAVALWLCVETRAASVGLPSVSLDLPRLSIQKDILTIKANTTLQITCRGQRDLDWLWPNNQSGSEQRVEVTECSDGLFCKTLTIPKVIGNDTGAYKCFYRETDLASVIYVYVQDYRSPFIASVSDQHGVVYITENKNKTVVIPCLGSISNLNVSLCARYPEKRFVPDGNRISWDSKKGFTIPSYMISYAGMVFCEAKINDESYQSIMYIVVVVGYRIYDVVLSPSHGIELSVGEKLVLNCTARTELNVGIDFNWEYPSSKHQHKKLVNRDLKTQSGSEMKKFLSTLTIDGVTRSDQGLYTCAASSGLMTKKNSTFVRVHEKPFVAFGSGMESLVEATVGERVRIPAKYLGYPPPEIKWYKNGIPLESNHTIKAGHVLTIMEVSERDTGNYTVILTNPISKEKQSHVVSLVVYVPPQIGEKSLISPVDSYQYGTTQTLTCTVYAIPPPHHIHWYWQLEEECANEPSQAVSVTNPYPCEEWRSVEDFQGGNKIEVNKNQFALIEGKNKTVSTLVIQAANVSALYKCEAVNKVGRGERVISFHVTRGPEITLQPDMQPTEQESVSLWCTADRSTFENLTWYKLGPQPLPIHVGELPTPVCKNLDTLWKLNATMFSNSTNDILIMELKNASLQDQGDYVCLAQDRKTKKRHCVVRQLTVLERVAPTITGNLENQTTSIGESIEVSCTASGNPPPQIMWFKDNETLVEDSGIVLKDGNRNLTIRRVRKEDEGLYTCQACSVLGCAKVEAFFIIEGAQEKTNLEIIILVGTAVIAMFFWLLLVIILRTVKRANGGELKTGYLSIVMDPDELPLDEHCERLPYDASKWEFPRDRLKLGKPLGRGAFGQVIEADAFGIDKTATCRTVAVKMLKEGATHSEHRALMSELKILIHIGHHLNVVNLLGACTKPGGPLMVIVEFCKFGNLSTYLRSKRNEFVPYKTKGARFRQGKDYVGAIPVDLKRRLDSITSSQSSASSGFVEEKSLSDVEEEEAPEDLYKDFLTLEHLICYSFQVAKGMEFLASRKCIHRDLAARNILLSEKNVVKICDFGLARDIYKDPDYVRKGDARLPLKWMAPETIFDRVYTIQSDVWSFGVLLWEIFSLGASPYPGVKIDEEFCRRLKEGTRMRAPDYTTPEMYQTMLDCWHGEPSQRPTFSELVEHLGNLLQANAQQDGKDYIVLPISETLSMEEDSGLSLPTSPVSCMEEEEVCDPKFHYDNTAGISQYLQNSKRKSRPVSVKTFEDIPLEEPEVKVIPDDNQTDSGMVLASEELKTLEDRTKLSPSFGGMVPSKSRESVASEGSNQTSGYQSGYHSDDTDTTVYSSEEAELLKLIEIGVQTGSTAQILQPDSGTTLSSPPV
# [22] = biological target: Focal adhesion kinase 1 (Homo sapiens) (UniProt Q05397); experiment: Inhibition of FAK at 10 uM
# [23] = biological target: T1, Vascular endothelial growth factor receptor 2; experiment: Inhibition of VEGFR2 expressed in porcine aortic endothelial cells; type: cell-based, Endothelial cell
# [24] = biological target: Epidermal growth factor receptor (Homo sapiens) (UniProt P00533); experiment: Inhibition of HER-1 at 10 uM
# [25] = biological target: Ephrin type-B receptor 4 (Homo sapiens) (UniProt P54760); experiment: Inhibition of EphB4 at 10 uM
# [26] = biological target: Insulin-like growth factor 1 receptor (Homo sapiens) (UniProt P08069); experiment: Inhibition of IGF-1R at 10 uM
# [27] = biological target: 3-phosphoinositide-dependent protein kinase 1 (Homo sapiens) (UniProt O15530); experiment: Inhibition of PDK1 at 10 uM
# [28] = tested on: Serine/threonine-protein kinase B-raf (Homo sapiens), P15056 [V600E]; experiment: Inhibition of B-Raf V599E mutant at 10 uM
# Chain of Serine/threonine-protein kinase B-raf (Homo sapiens), P15056 [V600E] (P15056 whole entry V600E): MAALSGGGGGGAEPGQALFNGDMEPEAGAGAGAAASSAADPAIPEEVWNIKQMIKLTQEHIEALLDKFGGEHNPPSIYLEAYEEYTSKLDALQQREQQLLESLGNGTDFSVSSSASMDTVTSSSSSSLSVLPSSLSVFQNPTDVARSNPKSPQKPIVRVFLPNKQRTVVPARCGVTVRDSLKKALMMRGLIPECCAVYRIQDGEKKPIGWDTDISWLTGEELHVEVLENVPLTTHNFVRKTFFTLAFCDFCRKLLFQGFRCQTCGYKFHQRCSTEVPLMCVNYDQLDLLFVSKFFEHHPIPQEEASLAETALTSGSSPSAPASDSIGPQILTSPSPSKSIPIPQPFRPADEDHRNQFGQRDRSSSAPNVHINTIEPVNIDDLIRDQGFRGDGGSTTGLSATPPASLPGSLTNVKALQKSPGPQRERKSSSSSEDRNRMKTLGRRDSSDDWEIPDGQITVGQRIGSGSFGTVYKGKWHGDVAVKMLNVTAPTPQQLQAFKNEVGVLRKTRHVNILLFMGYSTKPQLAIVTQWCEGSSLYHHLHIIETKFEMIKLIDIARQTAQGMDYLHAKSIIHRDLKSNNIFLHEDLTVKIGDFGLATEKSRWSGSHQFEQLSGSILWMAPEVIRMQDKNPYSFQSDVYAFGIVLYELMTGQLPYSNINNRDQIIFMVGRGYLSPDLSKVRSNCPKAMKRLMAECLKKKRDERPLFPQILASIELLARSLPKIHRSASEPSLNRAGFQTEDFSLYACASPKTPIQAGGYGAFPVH
# [29] = biological target: Proto-oncogene tyrosine-protein kinase Src (Homo sapiens) (UniProt P12931); experiment: Inhibition of Src at 10 uM
# [30] = biological target: Tyrosine-protein kinase receptor UFO (Homo sapiens) (UniProt P30530); experiment: Inhibition of Axl at 10 uM
# [31] = biological target: Receptor-type tyrosine-protein kinase FLT3 (Homo sapiens) (UniProt P36888); experiment: Inhibition of Flt-3 at 10 uM
# [32] = species on record: Homo sapiens; experiment: Inhibition of PKA at 10 uM
# [33] = biological target: Angiopoietin-1 receptor (Homo sapiens) (UniProt Q02763); experiment: Inhibition of Tek at 10 uM
structure (smiles),measurement,setting,value
Cc1nc(Nc2ncc(C(=O)Nc3c(C)cccc3Cl)s2)cc(N2CCN(CCO)CC2)n1,inhibition,[1],inactive
same,inhibition,[2],Active
same,inhibition,[3],Active
Clc1cccc(Nc2nc(SCCN3CCOCC3)nc3c2cnn3CC(Cl)c2ccccc2)c1 (stereo unspecified),Stability,[4],92.5%
same,inhibition,[5],Active
same,Activity,[6],Toxic
same,Papp,[7],3 ×10⁻⁶ cm/s
same,permeability,[8],47.7%
same,Activity,[9],Non-toxic
C(=C/n1ncc2c(NCCc3ccccc3)ncnc21)/c1ccccc1,pKi,[10],5.01
same,inhibition,[11],inactive
ClC(Cn1ncc2c(NCCc3ccccc3)nc(SCCN3CCOCC3)nc21)c1ccccc1 (stereo unspecified),inhibition,[11],inactive
Cc1cn(-c2cc(NC(=O)c3ccc(C)c(Nc4nccc(-c5cccnc5)n4)c3)cc(C(F)(F)F)c2)cn1,inhibition,[12],inactive
same,inhibition,[1],inactive
same,inhibition,[13],Active
same,inhibition,[3],Active
CSc1nc(NCCc2ccccc2)c2cnn(CC(Cl)c3ccccc3)c2n1 (stereo unspecified),Activity,[14],Toxic
ClC(Cn1ncc2c(NCc3ccccc3)ncnc21)c1ccccc1 (stereo unspecified),inhibition,[15],0%
same,inhibition,[16],6%
same,Stability,[4],82%
same,inhibition,[17],17%
same,inhibition,[5],Active
same,inhibition,[18],5%
same,inhibition,[19],8%
same,inhibition,[20],10%
same,inhibition,[21],29%
same,inhibition,[22],0%
same,Activity,[6],Toxic
same,pIC50,[23],6.00
same,permeability,[8],6%
same,Activity,[9],Non-toxic
same,inhibition,[24],56%
same,inhibition,[25],25%
same,inhibition,[26],0%
same,inhibition,[27],0%
same,inhibition,[28],42%
same,inhibition,[29],89%
same,inhibition,[30],8%
same,inhibition,[31],13%
same,inhibition,[32],0%
same,inhibition,[33],6%
